Measured values as given in patent US20240116985A1, “STAPLED PEPTIDES AND METHODS THEREOF” (priority 2020, published 2024).
Converted amounts (≈) assume the structure as drawn. Where two headings read alike, the source gives them in different places.

Legend:
[1] = molecular target: T1, full-length beta-Catenin (Uniprot ID P35222) (Homo sapiens, UniProt P35222); experiment: Fluorescence polarization IC50 (beta-catenin / 5FAM-TCF4 10-53 competition); format: binding
T1 construct: 10 nM full-length beta-Catenin (Uniprot ID P35222)
T1 sequence (P35222 1-781): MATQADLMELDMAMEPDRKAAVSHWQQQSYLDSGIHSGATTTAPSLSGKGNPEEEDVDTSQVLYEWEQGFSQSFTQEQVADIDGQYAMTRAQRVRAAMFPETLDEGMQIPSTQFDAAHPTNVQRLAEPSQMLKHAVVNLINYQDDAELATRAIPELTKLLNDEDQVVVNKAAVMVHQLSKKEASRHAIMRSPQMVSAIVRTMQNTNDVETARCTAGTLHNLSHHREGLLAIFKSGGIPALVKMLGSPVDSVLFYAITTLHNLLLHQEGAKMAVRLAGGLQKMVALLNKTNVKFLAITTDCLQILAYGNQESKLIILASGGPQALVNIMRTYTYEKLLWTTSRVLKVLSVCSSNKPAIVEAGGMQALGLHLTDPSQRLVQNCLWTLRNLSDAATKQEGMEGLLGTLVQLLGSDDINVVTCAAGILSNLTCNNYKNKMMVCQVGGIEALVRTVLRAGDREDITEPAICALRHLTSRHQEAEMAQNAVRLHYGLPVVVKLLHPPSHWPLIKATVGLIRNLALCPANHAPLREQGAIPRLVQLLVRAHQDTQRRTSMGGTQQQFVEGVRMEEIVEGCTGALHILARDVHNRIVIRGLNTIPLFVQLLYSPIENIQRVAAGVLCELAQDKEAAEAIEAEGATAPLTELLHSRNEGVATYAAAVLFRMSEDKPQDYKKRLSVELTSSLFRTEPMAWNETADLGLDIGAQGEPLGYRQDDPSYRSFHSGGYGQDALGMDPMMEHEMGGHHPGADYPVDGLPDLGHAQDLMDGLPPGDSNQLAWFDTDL

[2] = CHI Log D procedure; format: physicochemical
[3] = Solubility in PBS; format: physicochemical
Summary of the method: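 HPLC quantitation of peptide remaining in the PBS supernatant after ultracentrifugation, referenced to a 50 μM solution in DMSO.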

[4] = FP EC50 (nM), fluorescence polarization, beta-catenin

Row | SMILES | IC50 ([1]; read-out: beta-Catenin FP IC50) | chromatographic logD ([2]; pH 7.4, CHI Log D) | Solubility ([3]; Solubility (uM)) | Solubility [3] | IC50 [1, 4] | chromatographic logD ([2]; pH 7.4)
1 | CC(=O)N1CCC[C@]12CC=CCCCC1(CCCC=CCCCOC(=O)N3CC[C@@](C(=O)N[C@@H](Cc4ccsc4)C(=O)N[C@@H](Cc4csc5ccccc45)C(N)=O)(C3)NC(=O)[C@H](CC(N)=O)NC(=O)[C@H](Cc3ccccc3)NC(=O)[C@H](C)NC(=O)[C@H](C)NC(=O)[C@H](CCCNC(N)=O)NC(=O)[C@H](CC(=O)O)NC1=O)NC(=O)[C@H](CC(C)(C)C)NC(=O)[C@H](CC(=O)O)NC2=O (stereo partly drawn) [I-861, Ac-PL3-Asp-Npg-B5-Asp-Cit-Ala-Ala-Phe-Asn-PyrS2-3Thi-BztA-NH2] | 40 nM | 2.55 | 20 µM (≈ 36.6 µg/mL) |  |  | 
2 | CC(=O)N1CCC[C@]12CC=CCCCC1(CCCC=CCCCOC(=O)N3CC[C@@](C(=O)N[C@@H](Cc4ccsc4)C(=O)N[C@@H](Cc4csc5ccccc45)C(N)=O)(C3)NC(=O)[C@H](CC(N)=O)NC(=O)[C@H](Cc3ccccc3)NC(=O)[C@H](C)NC(=O)[C@H](C)NC(=O)[C@H](CC(C)C)NC(=O)[C@H](CC(=O)O)NC1=O)NC(=O)[C@H](CC(C)(C)C)NC(=O)[C@H](CC(=O)O)NC2=O (stereo partly drawn) [I-862, Ac-PL3-Asp-Npg-B5-Asp-Leu-Ala-Ala-Phe-Asn-PyrS2-3Thi-BztA-NH2] | 123 nM | 2.85 |  | 10 µM (≈ 17.9 µg/mL) |  | 
3 | CC(=O)N1CCC[C@]12CC=CCCCC1(CCCC=CCCCOC(=O)N3CC[C@@](C(=O)N[C@@H](Cc4ccsc4)C(=O)N[C@@H](Cc4csc5ccccc45)C(=O)N[C@@H](CCCCNC(=O)CN=[N+]=[N-])C(N)=O)(C3)NC(=O)[C@H](CC(N)=O)NC(=O)[C@H](Cc3ccccc3)NC(=O)[C@H](C)NC(=O)[C@H](C)NC(=O)[C@H](CC(=O)O)NC(=O)[C@H](CC(=O)O)NC1=O)NC(=O)[C@H](CC(C)(C)C)NC(=O)[C@H](CC(=O)O)NC2=O (stereo partly drawn) [I-878, Ac-PL3-Asp-Npg-B5-Asp-Asp-Ala-Ala-Phe-Asn-PyrS2-3Thi-BztA-[AzAc]Lys-NH2] |  |  |  | 46 µM (≈ 92.1 µg/mL) | 6 nM | 2.09
4 | CC(=O)N1CCC[C@]12CC=CCCCC1(CCCC=CCCCOC(=O)N3CC[C@@](C(=O)N[C@@H](Cc4ccsc4)C(=O)N[C@@H](Cc4csc5ccccc45)C(=O)N[C@@H](CCC(N)=O)C(N)=O)(C3)NC(=O)[C@H](CC(N)=O)NC(=O)[C@H](Cc3ccccc3)NC(=O)[C@H](C)NC(=O)[C@H](CCCCNC(=O)CN=[N+]=[N-])NC(=O)[C@H](CC(=O)O)NC(=O)[C@H](CC(=O)O)NC1=O)NC(=O)[C@H](CC(C)(C)C)NC(=O)[C@H](CC(=O)O)NC2=O (stereo partly drawn) [I-879, Ac-PL3-Asp-Npg-B5-Asp-Asp-[AzAc]Lys-Ala-Phe-Asn-PyrS2-3Thi-BztA-Gln-NH2] |  |  |  | 45 µM (≈ 92.6 µg/mL) | 6 nM | 2
5 | CC(=O)N1CCC[C@]12CC=CCCCC1(CCCC=CCCCOC(=O)N3CC[C@@](C(=O)N[C@@H](Cc4ccsc4)C(=O)N[C@@H](Cc4csc5ccccc45)C(=O)N[C@@H](CCC(N)=O)C(N)=O)(C3)NC(=O)[C@H](CC(N)=O)NC(=O)[C@H](Cc3ccccc3)NC(=O)[C@H](C)NC(=O)[C@H](C)NC(=O)[C@H](CC(=O)O)NC(=O)[C@H](CC(=O)O)NC1=O)NC(=O)[C@H](CCCCNC(=O)CN=[N+]=[N-])NC(=O)[C@H](CC(=O)O)NC2=O (stereo partly drawn) [I-880, Ac-PL3-Asp-[AzAc]Lys-B5-Asp-Asp-Ala-Ala-Phe-Asn-PyrS2-3Thi-BztA-Gln-NH2] |  |  |  | 42 µM (≈ 84.1 µg/mL) | 6 nM | 1.72
6 | CC(=O)N1CCC[C@]12CC=CCCCC1(CCCC=CCCCOC(=O)N3CC[C@@](C(=O)N[C@@H](Cc4ccsc4)C(=O)N[C@@H](Cc4csc5ccccc45)C(=O)N[C@@H](CCC(N)=O)C(N)=O)(C3)NC(=O)[C@H](CC(N)=O)NC(=O)[C@H](Cc3ccccc3)NC(=O)[C@H](CCCCNC(=O)CCc3cc(C(F)(F)F)cc(C(F)(F)F)c3)NC(=O)[C@H](C)NC(=O)[C@H](CC(=O)O)NC(=O)[C@H](CC(=O)O)NC1=O)NC(=O)[C@H](CC(C)(C)C)NC(=O)[C@H](CC(=O)O)NC2=O (stereo partly drawn) [I-883, Ac-PL3-Asp-Npg-B5-Asp-Asp-Ala-[35CF3PhPr]Lys-Phe-Asn-PyrS2-3Thi-BztA-Gln-NH2] | 53 nM | 2.4 | 42 µM (≈ 94.2 µg/mL) |  |  | 

More lines, main results first:

Row | IC50 ([1]; read-out: beta-Catenin FP IC50) | chromatographic logD ([2]; pH 7.4, CHI Log D) | Solubility ([3]; Solubility (uM)) | SMILES | Solubility [3] | IC50 [1, 4] | chromatographic logD ([2]; pH 7.4)
7 | 13 nM | 1.39 | 21 µM (≈ 45.9 µg/mL) | CC(=O)N1CCC[C@]12CC=CCCCC1(CCCC=CCCCOC(=O)N3CC[C@@](C(=O)N[C@@H](Cc4ccsc4)C(=O)N[C@@H](Cc4csc5ccccc45)C(=O)N[C@@H](CCC(N)=O)C(N)=O)(C3)NC(=O)[C@H](CC(N)=O)NC(=O)[C@H](Cc3ccccc3)NC(=O)[C@H](CCCCNC(=O)C3CCN(C4CCN(C)CC4)CC3)NC(=O)[C@H](C)NC(=O)[C@H](CC(=O)O)NC(=O)[C@H](CC(=O)O)NC1=O)NC(=O)[C@H](CC(C)(C)C)NC(=O)[C@H](CC(=O)O)NC2=O (stereo partly drawn) [I-888, Ac-PL3-Asp-Npg-B5-Asp-Asp-Ala-[MeBipipAc]Lys-Phe-Asn-PyrS2-3Thi-BztA-Gln-NH2] |  |  | 
8 | 13 nM | 1.53 | 42 µM (≈ 89.7 µg/mL) | CC(=O)N1CCC[C@]12CC=CCCCC1(CCCC=CCCCOC(=O)N3CC[C@@](C(=O)N[C@@H](Cc4ccsc4)C(=O)N[C@@H](Cc4csc5ccccc45)C(=O)N[C@@H](CCC(N)=O)C(N)=O)(C3)NC(=O)[C@H](CC(N)=O)NC(=O)[C@H](Cc3ccccc3)NC(=O)[C@H](CCCCNC(=O)c3ccc(CN(C)C)cc3)NC(=O)[C@H](C)NC(=O)[C@H](CC(=O)O)NC(=O)[C@H](CC(=O)O)NC1=O)NC(=O)[C@H](CC(C)(C)C)NC(=O)[C@H](CC(=O)O)NC2=O (stereo partly drawn) [I-891, Ac-PL3-Asp-Npg-B5-Asp-Asp-Ala-[Me2NCBz]Lys-Phe-Asn-PyrS2-3Thi-BztA-Gln-NH2] |  |  | 
9 | 38 nM | 2.49 | 40 µM (≈ 86.6 µg/mL) | CC(=O)N1CCC[C@]12CC=CCCCC1(CCCC=CCCCOC(=O)N3CC[C@@](C(=O)N[C@@H](Cc4ccsc4)C(=O)N[C@@H](Cc4csc5ccccc45)C(=O)N[C@@H](CCC(N)=O)C(N)=O)(C3)NC(=O)[C@H](CC(N)=O)NC(=O)[C@H](Cc3ccccc3)NC(=O)[C@H](CCCCNC(=O)CCC34CC5CC(CC(C5)C3)C4)NC(=O)[C@H](C)NC(=O)[C@H](CC(=O)O)NC(=O)[C@H](CC(=O)O)NC1=O)NC(=O)[C@H](CC(C)(C)C)NC(=O)[C@H](CC(=O)O)NC2=O (stereo partly drawn) [I-901, Ac-PL3-Asp-Npg-B5-Asp-Asp-Ala-[AdamantPro]Lys-Phe-Asn-PyrS2-3Thi-BztA-Gln-NH2] |  |  | 
10 | 8 nM | 1.92 | 46 µM (≈ 100 µg/mL) | CC(=O)N1CCC[C@]12CC=CCCCC1(CCCC=CCCCOC(=O)N3CC[C@@](C(=O)N[C@@H](Cc4ccsc4)C(=O)N[C@@H](Cc4csc5ccccc45)C(=O)N[C@@H](CCC(N)=O)C(=O)N[C@@H](CCCCNC(=O)CN4CCOCC4)C(N)=O)(C3)NC(=O)[C@H](CC(N)=O)NC(=O)[C@H](Cc3ccccc3)NC(=O)[C@H](C)NC(=O)[C@H](C)NC(=O)[C@H](CC(=O)O)NC(=O)[C@H](CC(=O)O)NC1=O)NC(=O)[C@H](CC(C)(C)C)NC(=O)[C@H](CC(=O)O)NC2=O (stereo partly drawn) [I-905, Ac-PL3-Asp-Npg-B5-Asp-Asp-Ala-Ala-Phe-Asn-PyrS2-3Thi-BztA-Gln-[Morph Ac]Lys-NH2] |  |  | 
11 | 10 nM | 1.83 | 45 µM (≈ 102 µg/mL) | COCCOCCOCCOCCC(=O)NCCCC[C@H](NC(=O)[C@H](CCC(N)=O)NC(=O)[C@H](Cc1csc2ccccc12)NC(=O)[C@H](Cc1ccsc1)NC(=O)[C@]12CCN(C1)C(=O)OCCCC=CCCCC1(CCCC=CC[C@]3(CCCN3C(C)=O)C(=O)N[C@@H](CC(=O)O)C(=O)N[C@@H](CC(C)(C)C)C(=O)N1)C(=O)N[C@@H](CC(=O)O)C(=O)N[C@@H](CC(=O)O)C(=O)N[C@@H](C)C(=O)N[C@@H](C)C(=O)N[C@@H](Cc1ccccc1)C(=O)N[C@@H](CC(N)=O)C(=O)N2)C(N)=O (stereo partly drawn) [I-912, Ac-PL3-Asp-Npg-B5-Asp-Asp-Ala-Ala-Phe-Asn-PyrS2-3Thi-BztA-Gln-[mPEG4]Lys-NH2] |  |  | 
12 | 16 nM | 1.82 | 46 µM (≈ 112 µg/mL) | COCCOCCOCCOCCOCCOCCOCCOCCC(=O)NCCCC[C@H](NC(=O)[C@H](CCC(N)=O)NC(=O)[C@H](Cc1csc2ccccc12)NC(=O)[C@H](Cc1ccsc1)NC(=O)[C@]12CCN(C1)C(=O)OCCCC=CCCCC1(CCCC=CC[C@]3(CCCN3C(C)=O)C(=O)N[C@@H](CC(=O)O)C(=O)N[C@@H](CC(C)(C)C)C(=O)N1)C(=O)N[C@@H](CC(=O)O)C(=O)N[C@@H](CC(=O)O)C(=O)N[C@@H](C)C(=O)N[C@@H](C)C(=O)N[C@@H](Cc1ccccc1)C(=O)N[C@@H](CC(N)=O)C(=O)N2)C(N)=O (stereo partly drawn) [I-914, Ac-PL3-Asp-Npg-B5-Asp-Asp-Ala-Ala-Phe-Asn-PyrS2-3Thi-BztA-Gln-[mPEG8]Lys-NH2] |  |  | 
